Assay results taken from ChEMBL document CHEMBL1806489, “Synthesis and biological evaluation of novel F-18 labeled pyrazolo[1,5-a]pyrimidine derivatives: potential PET imaging agents for tumor detection” (Bioorg Med Chem Lett, 2011).

Columns and labels:
Lung [1] = assay: Biodistribution in mouse S180 cells xenografted Kunming mouse lung at 370 kBq/0.1 mL, iv after 120 mins by gamma counting; format: ADME, organism-based, CCRF S-180; details: in vivo, 2 h
Brain [2] = assay: Biodistribution in mouse S180 cells xenografted Kunming mouse brain at 370 kBq/0.1 mL, iv after 120 mins by gamma counting; format: ADME, organism-based, CCRF S-180; details: in vivo, 2 h
Muscle tissue [3] = assay: Biodistribution in mouse S180 cells xenografted Kunming mouse muscle at 370 kBq/0.1 mL, iv after 120 mins by gamma counting; format: ADME, organism-based, CCRF S-180; details: in vivo, 2 h
Blood [4] = assay: Biodistribution in mouse S180 cells xenografted Kunming mouse blood at 370 kBq/0.1 mL, iv after 120 mins by gamma counting; format: ADME, organism-based, CCRF S-180; details: in vivo, 2 h
Nucleic Acid [5] = assay: Ratio of drug level in tumor to brain in mouse S180 cells xenografted Kunming mouse at 370 kBq/0.1 mL, iv after 120 mins by gamma counting; format: ADME, organism-based, CCRF S-180; details: in vivo, 2 h
Nucleic Acid [6] = assay: Ratio of drug level in tumor to muscle in mouse S180 cells xenografted Kunming mouse at 370 kBq/0.1 mL, iv after 120 mins by gamma counting; format: ADME, organism-based, CCRF S-180; details: in vivo, 2 h
[7] = Partition coefficient, log P of the compound; format: physicochemical; details: octanol/water
Plasma = assay: Metabolic stability in mouse plasma at 3.7 MBq after 1 to 2 hrs; format: ADME, cell-free
CCRF S-180 = assay: Cellular uptake in mouse S180 cells after 60 mins; format: ADME, cell-based; details: ccrf s-180, 1 h
Heart [8] = assay: Biodistribution in mouse S180 cells xenografted Kunming mouse heart at 370 kBq/0.1 mL, iv after 5 mins by gamma counting; format: ADME, organism-based, CCRF S-180; details: in vivo
Liver = assay: Biodistribution in mouse S180 cells xenografted Kunming mouse liver at 370 kBq/0.1 mL, iv after 5 mins by gamma counting; format: ADME, organism-based, CCRF S-180; details: in vivo
Spleen [9] = assay: Biodistribution in mouse S180 cells xenografted Kunming mouse spleen at 370 kBq/0.1 mL, iv after 5 mins by gamma counting; format: ADME, organism-based, CCRF S-180; details: in vivo
Kidney [10] = assay: Biodistribution in mouse S180 cells xenografted Kunming mouse kidney at 370 kBq/0.1 mL, iv after 5 mins by gamma counting; format: ADME, organism-based, CCRF S-180; details: in vivo
Brain [11] = assay: Biodistribution in mouse S180 cells xenografted Kunming mouse brain at 370 kBq/0.1 mL, iv after 5 mins by gamma counting; format: ADME, organism-based, CCRF S-180; details: in vivo
Muscle tissue [12] = assay: Biodistribution in mouse S180 cells xenografted Kunming mouse muscle at 370 kBq/0.1 mL, iv after 5 mins by gamma counting; format: ADME, organism-based, CCRF S-180; details: in vivo
Blood [13] = assay: Biodistribution in mouse S180 cells xenografted Kunming mouse blood at 370 kBq/0.1 mL, iv after 5 mins by gamma counting; format: ADME, organism-based, CCRF S-180; details: in vivo
Mus musculus = assay: Biodistribution in mouse S180 cells xenografted Kunming mouse tumor at 370 kBq/0.1 mL, iv after 5 mins by gamma counting; format: ADME, organism-based, Neoplasm, CCRF S-180; details: in vivo
Nucleic Acid [14] = assay: Ratio of drug level in tumor to brain in mouse S180 cells xenografted Kunming mouse at 370 kBq/0.1 mL, iv after 5 mins by gamma counting; format: ADME, organism-based, CCRF S-180; details: in vivo
Nucleic Acid [15] = assay: Ratio of drug level in tumor to muscle in mouse S180 cells xenografted Kunming mouse at 370 kBq/0.1 mL, iv after 5 mins by gamma counting; format: ADME, organism-based, CCRF S-180; details: in vivo
Nucleic Acid [16] = assay: Ratio of drug level in tumor to blood in mouse S180 cells xenografted Kunming mouse at 370 kBq/0.1 mL, iv after 5 mins by gamma counting; format: ADME, organism-based, CCRF S-180; details: tumour
Spleen [17] = assay: Biodistribution in mouse S180 cells xenografted Kunming mouse spleen at 370 kBq/0.1 mL, iv after 15 mins by gamma counting; format: ADME, organism-based, CCRF S-180; details: in vivo, 0.25 h
Lung [18] = assay: Biodistribution in mouse S180 cells xenografted Kunming mouse lung at 370 kBq/0.1 mL, iv after 15 mins by gamma counting; format: ADME, organism-based, CCRF S-180; details: in vivo, 0.25 h
Kidney [19] = assay: Biodistribution in mouse S180 cells xenografted Kunming mouse kidney at 370 kBq/0.1 mL, iv after 15 mins by gamma counting; format: ADME, organism-based, CCRF S-180; details: in vivo, 0.25 h
Brain [20] = assay: Biodistribution in mouse S180 cells xenografted Kunming mouse brain at 370 kBq/0.1 mL, iv after 15 mins by gamma counting; format: ADME, organism-based, CCRF S-180; details: in vivo, 0.25 h
Blood [21] = assay: Biodistribution in mouse S180 cells xenografted Kunming mouse blood at 370 kBq/0.1 mL, iv after 15 mins by gamma counting; format: ADME, organism-based, CCRF S-180; details: in vivo, 0.25 h
Nucleic Acid [22] = assay: Ratio of drug level in tumor to brain in mouse S180 cells xenografted Kunming mouse at 370 kBq/0.1 mL, iv after 15 mins by gamma counting; format: ADME, organism-based, CCRF S-180; details: in vivo, 0.25 h
Nucleic Acid [23] = assay: Ratio of drug level in tumor to blood in mouse S180 cells xenografted Kunming mouse at 370 kBq/0.1 mL, iv after 15 mins by gamma counting; format: ADME, organism-based, CCRF S-180; details: tumour, 0.25 h
Spleen [24] = assay: Biodistribution in mouse S180 cells xenografted Kunming mouse spleen at 370 kBq/0.1 mL, iv after 30 mins by gamma counting; format: ADME, organism-based, CCRF S-180; details: in vivo, 0.5 h
Lung [25] = assay: Biodistribution in mouse S180 cells xenografted Kunming mouse lung at 370 kBq/0.1 mL, iv after 30 mins by gamma counting; format: ADME, organism-based, CCRF S-180; details: in vivo, 0.5 h
Kidney [26] = assay: Biodistribution in mouse S180 cells xenografted Kunming mouse kidney at 370 kBq/0.1 mL, iv after 30 mins by gamma counting; format: ADME, organism-based, CCRF S-180; details: in vivo, 0.5 h
Muscle tissue [27] = assay: Biodistribution in mouse S180 cells xenografted Kunming mouse muscle at 370 kBq/0.1 mL, iv after 30 mins by gamma counting; format: ADME, organism-based, CCRF S-180; details: in vivo, 0.5 h
Blood [28] = assay: Biodistribution in mouse S180 cells xenografted Kunming mouse blood at 370 kBq/0.1 mL, iv after 30 mins by gamma counting; format: ADME, organism-based, CCRF S-180; details: in vivo, 0.5 h
Nucleic Acid [29] = assay: Ratio of drug level in tumor to muscle in mouse S180 cells xenografted Kunming mouse at 370 kBq/0.1 mL, iv after 30 mins by gamma counting; format: ADME, organism-based, CCRF S-180; details: in vivo, 0.5 h
Nucleic Acid [30] = assay: Ratio of drug level in tumor to blood in mouse S180 cells xenografted Kunming mouse at 370 kBq/0.1 mL, iv after 30 mins by gamma counting; format: ADME, organism-based, CCRF S-180; details: tumour, 0.5 h
Spleen [31] = assay: Biodistribution in mouse S180 cells xenografted Kunming mouse spleen at 370 kBq/0.1 mL, iv after 60 mins by gamma counting; format: ADME, organism-based, CCRF S-180; details: in vivo, 1 h
Lung [32] = assay: Biodistribution in mouse S180 cells xenografted Kunming mouse lung at 370 kBq/0.1 mL, iv after 60 mins by gamma counting; format: ADME, organism-based, CCRF S-180; details: in vivo, 1 h
Kidney [33] = assay: Biodistribution in mouse S180 cells xenografted Kunming mouse kidney at 370 kBq/0.1 mL, iv after 60 mins by gamma counting; format: ADME, organism-based, CCRF S-180; details: in vivo, 1 h
Brain [34] = assay: Biodistribution in mouse S180 cells xenografted Kunming mouse brain at 370 kBq/0.1 mL, iv after 60 mins by gamma counting; format: ADME, organism-based, CCRF S-180; details: in vivo, 1 h
Muscle tissue [35] = assay: Biodistribution in mouse S180 cells xenografted Kunming mouse muscle at 370 kBq/0.1 mL, iv after 60 mins by gamma counting; format: ADME, organism-based, CCRF S-180; details: in vivo, 1 h
Blood [36] = assay: Biodistribution in mouse S180 cells xenografted Kunming mouse blood at 370 kBq/0.1 mL, iv after 60 mins by gamma counting; format: ADME, organism-based, CCRF S-180; details: in vivo, 1 h
Nucleic Acid [37] = assay: Ratio of drug level in tumor to muscle in mouse S180 cells xenografted Kunming mouse at 370 kBq/0.1 mL, iv after 60 mins by gamma counting; format: ADME, organism-based, CCRF S-180; details: in vivo, 1 h
Heart [38] = assay: Biodistribution in mouse S180 cells xenografted Kunming mouse heart at 370 kBq/0.1 mL, iv after 120 mins by gamma counting; format: ADME, organism-based, CCRF S-180; details: in vivo, 2 h
Spleen [39] = assay: Biodistribution in mouse S180 cells xenografted Kunming mouse spleen at 370 kBq/0.1 mL, iv after 120 mins by gamma counting; format: ADME, organism-based, CCRF S-180; details: in vivo, 2 h

Cc1cc(NCC[18F])n2ncc(C#N)c2n1
Drug uptake (Lung [1]): 2.54 % ID/g | Drug uptake (Brain [2]): 1.79 % ID/g | Drug uptake (Muscle tissue [3]): 2.64 % ID/g | Drug uptake (Blood [4]): 2.95 % ID/g | Ratio (Nucleic Acid [5]): 1.61 | Ratio (Nucleic Acid [6]): 1.09 | logP [7]: 0.68 | Stability (Plasma): Stable | Drug uptake (CCRF S-180): 9% | Drug uptake (Heart [8]): 5.53 % ID/g | Drug uptake (Liver): 6.99 % ID/g | Drug uptake (Spleen [9]): 4.66 % ID/g | Drug uptake (Kidney [10]): 7.93 % ID/g | Drug uptake (Brain [11]): 3.17 % ID/g | Drug uptake (Muscle tissue [12]): 3.99 % ID/g | Drug uptake (Blood [13]): 4.83 % ID/g | Drug uptake (Mus musculus): 1.88 % ID/g | Ratio (Nucleic Acid [14]): 0.59 | Ratio (Nucleic Acid [15]): 0.47 | Ratio (Nucleic Acid [16]): 0.39 | Drug uptake (Spleen [17]): 3.42 % ID/g | Drug uptake (Lung [18]): 3.79 % ID/g | Drug uptake (Kidney [19]): 5.04 % ID/g | Drug uptake (Brain [20]): 2.7 % ID/g | Drug uptake (Blood [21]): 4.65 % ID/g | Ratio (Nucleic Acid [22]): 1.62 | Ratio (Nucleic Acid [23]): 0.94 | Drug uptake (Spleen [24]): 3.43 % ID/g | Drug uptake (Lung [25]): 3.77 % ID/g | Drug uptake (Kidney [26]): 3.28 % ID/g | Drug uptake (Muscle tissue [27]): 3.05 % ID/g | Drug uptake (Blood [28]): 4.49 % ID/g | Ratio (Nucleic Acid [29]): 1.81 | Ratio (Nucleic Acid [30]): 1.23 | Drug uptake (Spleen [31]): 2.82 % ID/g | Drug uptake (Lung [32]): 2.78 % ID/g | Drug uptake (Kidney [33]): 2.58 % ID/g | Drug uptake (Brain [34]): 1.93 % ID/g | Drug uptake (Muscle tissue [35]): 2.31 % ID/g | Drug uptake (Blood [36]): 3.63 % ID/g | Ratio (Nucleic Acid [37]): 1.28 | Drug uptake (Heart [38]): 2.59 % ID/g | Drug uptake (Spleen [39]): 2.15 % ID/g

Cc1cc(NCCNC(=O)c2ccc([N+](=O)[O-])cc2[18F])n2ncc(C#N)c2n1
Drug uptake (Lung [1]): 0.19 % ID/g | Drug uptake (Brain [2]): 0.04 % ID/g | Drug uptake (Muscle tissue [3]): 0.28 % ID/g | Drug uptake (Blood [4]): 0.09 % ID/g | Ratio (Nucleic Acid [5]): 5.13 | Ratio (Nucleic Acid [6]): 0.77 | logP [7]: 0.69 | Stability (Plasma): Stable | Drug uptake (CCRF S-180): 9% | Drug uptake (Heart [8]): 5.77 % ID/g | Drug uptake (Liver): 17.9 % ID/g | Drug uptake (Spleen [9]): 4.54 % ID/g | Drug uptake (Kidney [10]): 17.7 % ID/g | Drug uptake (Brain [11]): 0.38 % ID/g | Drug uptake (Muscle tissue [12]): 3.82 % ID/g | Drug uptake (Blood [13]): 5.23 % ID/g | Drug uptake (Mus musculus): 2.26 % ID/g | Ratio (Nucleic Acid [14]): 5.87 | Ratio (Nucleic Acid [15]): 0.59 | Ratio (Nucleic Acid [16]): 0.43 | Drug uptake (Spleen [17]): 1.96 % ID/g | Drug uptake (Lung [18]): 2.6 % ID/g | Drug uptake (Kidney [19]): 8.45 % ID/g | Drug uptake (Brain [20]): 0.16 % ID/g | Drug uptake (Blood [21]): 2.5 % ID/g | Ratio (Nucleic Acid [22]): 12.35 | Ratio (Nucleic Acid [23]): 0.8 | Drug uptake (Spleen [24]): 0.99 % ID/g | Drug uptake (Lung [25]): 1.19 % ID/g | Drug uptake (Kidney [26]): 5.63 % ID/g | Drug uptake (Muscle tissue [27]): 0.89 % ID/g | Drug uptake (Blood [28]): 1.42 % ID/g | Ratio (Nucleic Acid [29]): 1.4 | Ratio (Nucleic Acid [30]): 0.88 | Drug uptake (Spleen [31]): 0.53 % ID/g | Drug uptake (Lung [32]): 0.56 % ID/g | Drug uptake (Kidney [33]): 1.83 % ID/g | Drug uptake (Brain [34]): 0.08 % ID/g | Drug uptake (Muscle tissue [35]): 0.47 % ID/g | Drug uptake (Blood [36]): 0.45 % ID/g | Ratio (Nucleic Acid [37]): 1.57 | Drug uptake (Heart [38]): 0.12 % ID/g | Drug uptake (Spleen [39]): 0.14 % ID/g
